Experimental findings from the CheMixHub viscosity set are described below.

Several values for one entry are separate records, joined by “and”; a condition that tells them apart may be missing. Equal entries are not always repeated. ± gives the uncertainty stated by the source.

As usually defined, the viscosity is the internal friction of a fluid under shear. `C=C(C)C(=O)OCCCC`: the viscosity came out at 0.8768 ± 0.019 mPa·s (298.15 K, 101 kPa); 0.8077 ± 0.017 mPa·s (303.15 K, 101 kPa); 0.7483 ± 0.016 mPa·s (308.15 K, 101 kPa); 0.7012 ± 0.015 mPa·s (313.15 K, 101 kPa); 0.6639 ± 0.014 mPa·s (318.15 K, 101 kPa).

As for `C=CCN=C=S`, the viscosity runs as follows: (298.15 K, 101 kPa) 0.662 ± 0.018 mPa·s; (303.15 K, 101 kPa) 0.671 ± 0.018 mPa·s; (313.15 K, 100 kPa) 0.592 ± 0.005 mPa·s; (323.15 K, 101 kPa) 0.526 ± 0.014 mPa·s.

`C=CCc1ccc(O)c(OC)c1` showed a viscosity (298.15 K, 101 kPa) of 6.93 ± 0.084 mPa·s.

`CC(=O)[O-].CC[NH2+]CC`: the viscosity is 13.64 ± 0.28 mPa·s and 13.64 ± 0.35 mPa·s (303.15 K, 101 kPa); 11.83 ± 0.24 mPa·s and 11.83 ± 0.3 mPa·s (308.15 K, 101 kPa); 10.02 ± 0.21 mPa·s (313.15 K, 101 kPa).

For `CC(C)(C)C(=O)O`, the viscosity is, setting by setting: (313.15 K, 101 kPa) 2.45 ± 0.03 mPa·s; (318.15 K, 101 kPa) 2.23 ± 0.02 mPa·s; (323.15 K, 101 kPa) 2.06 ± 0.02 mPa·s.

`CC(C)NC(C)C`: the viscosity was 0.38 ± 0.02 mPa·s and 0.382 ± 0.012 mPa·s (298.15 K, 100 kPa); 0.382 ± 0.06 mPa·s (298.15 K, 101 kPa); 0.36 ± 0.02 mPa·s and 0.364 ± 0.011 mPa·s (303.15 K, 100 kPa); 0.364 ± 0.06 mPa·s (303.15 K, 101 kPa); 0.35 ± 0.02 mPa·s and 0.347 ± 0.011 mPa·s (308.15 K, 100 kPa); 0.347 ± 0.06 mPa·s and 0.3089 ± 0.01 mPa·s (308.15 K, 101 kPa).

For the compound `CC(CC(C)(C)C)CP(=O)([O-])CC(C)CC(C)(C)C.CCCCCCCC[P+](C)(C)C` (configuration not stated), the viscosity reads like this: (298.15 K, 101 kPa) 804 ± 50 mPa·s; (303.15 K, 101 kPa) 560 ± 32 mPa·s; (308.15 K, 101 kPa) 408 ± 21 mPa·s; (313.15 K, 101 kPa) 306 ± 15 mPa·s; (318.15 K, 101 kPa) 227 ± 10 mPa·s; (323.15 K, 101 kPa) 177 ± 7 mPa·s.

Regarding `CCC(=O)c1ccccc1`, the viscosity was 1.51 ± 0.02 mPa·s (303.15 K, 100 kPa); 1.51 ± 0.02 mPa·s and 1.515 ± 0.063 mPa·s and 1.622 ± 0.037 mPa·s (303.15 K, 101 kPa); 1.423 ± 0.059 mPa·s and 1.449 ± 0.033 mPa·s (313.15 K, 101 kPa); 1.377 ± 0.057 mPa·s (318.15 K, 101 kPa).

Take `CCCCCCCCCCCCCCCCCCCc1ccccc1`: the viscosity (313.15 K, 101 kPa) is listed as 8.33 ± 0.07 mPa·s.

Turning to `CCCCCCCCCCCO`, the viscosity reads like this: (293.15 K, 101.33 kPa) 16.95 ± 0.39 mPa·s; (298.15 K, 101.33 kPa) 13.83 ± 0.32 mPa·s.

For `CCCCCCCCCc1ccccc1`, the viscosity is 3.14 ± 0.03 mPa·s (293.15 K, 102 kPa); 2.51 ± 0.03 mPa·s (303.15 K, 102 kPa); 2.094 ± 0.043 mPa·s (313.15 K, 100 kPa); 2.05 ± 0.03 mPa·s (313.15 K, 102 kPa); 1.72 ± 0.03 mPa·s (323.15 K, 102 kPa).

As for `CCCCCCn1cc[n+](C)c1.[Cl-]`, the viscosity is 11420 ± 1000 mPa·s (293.15 K, 101 kPa); 4206 ± 320 mPa·s (303.15 K, 101 kPa); 1718 ± 100 mPa·s (313.15 K, 101 kPa); 1879 ± 600 mPa·s and 783.4 ± 38 mPa·s (323.15 K, 101 kPa).

With `CCCC[N+]1(C)CCCC1.N#C[C-](C#N)C#N`, the viscosity came to 20.56 ± 1.2 mPa·s (308.15 K, 101 kPa) and 15.44 ± 0.94 mPa·s (318.15 K, 101 kPa).

For `CCCC[N+]1(C)CCCCC1.N#C[S-]`, the viscosity (318.15 K, 101 kPa) turned out to be 264.5 ± 59 mPa·s.

Regarding `CCOC(=O)CC(C)=O`, the viscosity (293.15 K, 100 kPa) was 1.656 ± 0.1 mPa·s and the viscosity (298.15 K, 100 kPa) came out at 1.51 ± 0.091 mPa·s.

Compound `CCOC(=O)CCBr` gave a viscosity (303.15 K, 101 kPa) of 1.867 ± 0.011 mPa·s.

Regarding `CCOP(=O)([O-])OCC.CC[N+]1(C)CCOCC1`, the viscosity by setting is: (293.15 K, 100 kPa) 12080 ± 1500 mPa·s; (298.15 K, 100 kPa) 6680 ± 740 mPa·s; (303.15 K, 100 kPa) 3786 ± 390 mPa·s; (308.15 K, 100 kPa) 2325 ± 220 mPa·s; (313.15 K, 100 kPa) 1466 ± 130 mPa·s; (318.15 K, 100 kPa) 941.7 ± 80 mPa·s. Where the note is “323.15 K, 100 kPa”, this compound yielded a viscosity of 634 ± 51 mPa·s.
